In brackets after ≈: the same amount, converted by molar mass. Read-outs that look alike come from different tables or passages of the source.
B1: TMPKh (human TMPK) (Homo sapiens) (protein)
chain: MAARRGALIVLEGVDRAGKSTQSRKLVEALCAAGHRAELLRFPERSTEIGKLLSSYLQKKSDVEDHSVHLLFSANRWEQVPLIKEKLSQGVTLVVDRYAFSGVAFTGAKENFSLDWCKQPDVGLPKPDLVLFLQLQLADAAKRGAFGHERYENGAFQERALRCFHQLMKDTTLNWKMVDASKSIEAVHEDIRVLSEDAIRTATEKPLGELWK

How the values were obtained:
[1] = biological target: TMPKmt (M. tuberculosis TMPK) (Mycobacterium tuberculosis, UniProt P9WKE1); test: biochemical; assay type: biochemical
Sequence of TMPKmt (M. tuberculosis TMPK) (P9WKE1 whole entry, looked up): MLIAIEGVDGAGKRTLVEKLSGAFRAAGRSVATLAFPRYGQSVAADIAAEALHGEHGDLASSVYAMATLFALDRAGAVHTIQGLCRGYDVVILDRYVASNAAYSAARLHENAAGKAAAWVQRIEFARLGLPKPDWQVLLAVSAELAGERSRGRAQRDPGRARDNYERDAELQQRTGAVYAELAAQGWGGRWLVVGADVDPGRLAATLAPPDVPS

[2] = system: Mycobacterium tuberculosis H37Ra; test: IC50 on cultures of Mycobacterium tuberculosis H37Ra; assay type: cell-based
Description: The IC50 value for three compounds has been measured on cultures of Mycobacterium tuberculosis H37Ra.

VERO cells = test: cytotoxicity on VERO cells; assay type: cell-based
Procedure: Cytotoxicity: The molecule 22 has been tested for its cytotoxicity on VERO cells. It has been determined that no growth inhibition, and consequently no cytotoxic activity, could be detected up to a concentration of 250 μg/ml of compound 22.

[3] = system: Cc1cn([C@H]2C[C@H](O)[C@@H](COP(=O)(O)O)O2)c(=O)[nH]c1=O; test: purified protein, by the assay type; details: other: substrate Km; pH 7.4; 30.0 °C
[4] = substrate: Cc1cn([C@H]2C[C@H](O)[C@@H](COP(=O)(O)O)O2)c(=O)[nH]c1=O; test: purified protein, by the assay type; details: other: substrate Km; pH 7.4; 30.0 °C; remark: listed apart in the source
[5] = pH 7.4, read-out: TMPKmt W1002 Ki

| Molecule | Ki [1, 5] | Ki ([1]; pH 7.4, read-out: Ki) | also measured |
| --- | --- | --- | --- |
| Cc1cn(Cc2ccc(CCC(N)=O)cc2)c(=O)[nH]c1=O [Compound 1, 3-[4-(5-Methyl-2,4-dioxo-3,4-dihydro-2H-pyrimidin-1-ylmethyl)-phenyl]-propionamide] | 110 µM |  |  |
| Cc1cn(Cc2ccc(CCC(=O)O)cc2)c(=O)[nH]c1=O [Compound 2, 3-[4-(5-Methyl-2,4-dioxo-3,4-dihydro-2H-pyrimidin-1-ylmethyl)-phenyl]-propionic acid] | 68 µM |  |  |
| Cc1cn(Cc2ccccc2)c(=O)[nH]c1=O [Compound 3, 5-Methyl-1-Benzyl-1H-pyrimidine-2,4-dione] | 75 µM |  |  |
| O=c1[nH]c(=O)n(Cc2ccccc2)cc1Br [Compound 4, 5-Bromo-1-benzyl-1H-pyrimidine-2,4-dione] | 44 µM |  |  |
| Cc1cn(Cc2ccc(F)cc2)c(=O)[nH]c1=O [Compound 6, 5-Methyl-1-(4-fluoro-benzyl)-1H-pyrimidine-2,4-dione] | 45 µM |  |  |
| Cc1cn(Cc2cccc(F)c2)c(=O)[nH]c1=O [Compound 7, 5-Methyl-1-(3-fluoro-benzyl)-1H-pyrimidine-2,4-dione] | 90 µM |  |  |
| Cc1cn(Cc2ccc(F)c(F)c2)c(=O)[nH]c1=O [Compound 8, 5-Methyl-1-(3,4-difluoro-benzyl)-1H-pyrimidine-2,4-dione] | 67 µM |  |  |
| Cc1cn(Cc2ccc(Cl)cc2)c(=O)[nH]c1=O [Compound 9, 5-Methyl-1-(4-chloro-benzyl)-1H-pyrimidine-2,4-dione] | 50 µM |  |  |
| Cc1cn(Cc2cccc(Cl)c2)c(=O)[nH]c1=O [Compound 10, 5-Methyl-1-(3-chloro-benzyl)-1H-pyrimidine-2,4-dione] | 44 µM |  |  |
| Cc1cn(Cc2ccc(Br)cc2)c(=O)[nH]c1=O [Compound 11, 5-Methyl-1-(4-bromo-benzyl)-1H-pyrimidine-2,4-dione] | 38 µM |  |  |
| N#Cc1cn(Cc2ccccc2)c(=O)[nH]c1=O [Compound 12] | 980 µM |  |  |
| N#Cc1cn(Cc2cccc(Cl)c2)c(=O)[nH]c1=O [Compound 13] | 810 µM |  |  |
| Cc1cn(Cc2ccc(C=CC(N)=O)cc2)c(=O)[nH]c1=O [Compound 14, 3-[4-(5-Methyl-2,4-dioxo-3,4-dihydro-2H-pyrimidin-1-ylmethyl)-phenyl]-acrylamide] | 240 µM |  |  |
| CCOC(=O)CCc1ccc(Cn2cc(C)c(=O)[nH]c2=O)cc1 [Compound 19, 3-[4-(5-Methyl-2,4-dioxo-3,4-dihydro-2H-pyrimidin-1-ylmethyl)-phenyl]-propionic acid ethyl ester] | 265 µM |  |  |
| Cc1cn(Cc2ccc(CCCC(=O)O)cc2)c(=O)[nH]c1=O [Compound 20, 4-[4-(5-Methyl-2,4-dioxo-3,4-dihydro-2H-pyrimidin-1-yl-methyl)-phenyl]-butyric acid] | 16.5 µM |  | IC50 [2]: 100 µg/mL (≈ 331 µM) |
| O=C(O)CCCc1ccc(Cn2cc(Br)c(=O)[nH]c2=O)cc1 [Compound 21, 4-[5-Bromo-(2,4-dioxo-3,4-dihydro-2H-pyrimidin-1-ylmethyl)-phenyl]butyric acid] |  |  | IC50 [2]: 50 µg/mL (≈ 136 µM) |
| Cc1cn(Cc2ccc(CCCCCC(=O)O)cc2)c(=O)[nH]c1=O [Compound 22, 6-[4-(5-Methyl-2,4-dioxo-3,4-dihydro-2H-pyrimidin-1-yl-methyl)-phenyl]-hexanoic acid] | 32 µM |  | IC50 [2]: 25 µg/mL (≈ 75.7 µM); concentration up to which no growth inhibition / no cytotoxic activity could be detected (VERO cells): > 250 µg/mL |
| Cc1cn(Cc2ccc(C#CCCO)cc2)c(=O)[nH]c1=O [Compound 30, 1-[4-(4-Hydroxy-but-1-ynyl)-benzyl]-5-methyl-1H-pyrimidine-2,4-dione] |  | 86 µM |  |

| Molecule | Ki [1, 5] | Ki ([1]; pH 7.4, read-out: Ki) | also measured |
| --- | --- | --- | --- |
| Cc1cn(Cc2ccc(CCCCO)cc2)c(=O)[nH]c1=O [Compound 31, 1-[4-(4-Elydroxy-butyl)-benzyl]-5-methyl-1H-pyrimidine-2,4-dione] |  | 63 µM |  |
| O=C(O)CCCc1ccc(Cn2cc(Cl)c(=O)[nH]c2=O)cc1 [Compound 39] |  | 15 µM |  |
| COC(=O)CCCc1ccc(Cn2cc(C)c(=O)[nH]c2=O)cc1 [Compound 40a] |  | 70 µM |  |
| Cc1cn(Cc2ccc(CCCC(N)=O)cc2)c(=O)[nH]c1=O [Compound 40b] |  | 139 µM |  |
| Cc1cn(Cc2ccc(CCCCC(=O)O)cc2)c(=O)[nH]c1=O [Compound 45, 5-[4-(5-Methyl-2,4-dioxo-3,4-dihydro-2H-pyrimidin-1-yl-methyl)-phenyl]-pentanoic acid] |  | 72 µM |  |
| O=C(O)CCCCc1ccc(Cn2cc(Br)c(=O)[nH]c2=O)cc1 [Compound 48, 5-[4-(5-Bromo-2,4-dioxo-3,4-dihydro-2H-pyrimidin-1-yl-methyl)-phenyl]-pentanoic acid] |  | 47 µM |  |
| Cc1cn(Cc2ccc(C#CCCCC(=O)O)cc2)c(=O)[nH]c1=O [Compound 51, 6-[4-(5-Methyl-2,4-dioxo-3,4-dihydro-2H-pyrimidin-1-yl-methyl)-phenyl]-hexyn-5-oic acid] |  | 119 µM |  |
| Cc1cn(Cc2ccc(C#CCCCC(N)=O)cc2)c(=O)[nH]c1=O [Compound 53, 6-[4-(5-Methyl-2,4-dioxo-3,4-dihydro-2H-pyrimidin-1-yl-methyl)-phenyl]-hexyn-5-oic acid amide] |  | 113 µM |  |
| Cc1cn(Cc2ccc(CCCCCC(N)=O)cc2)c(=O)[nH]c1=O [Compound 54, 6-[4-(5-Methyl-2,4-dioxo-3,4-dihydro-2H-pyrimidin-1-yl-methyl)-phenyl]-hexanoic acid amide] |  | 33 µM |  |
| O=C(O)CCCCCc1ccc(Cn2cc(Br)c(=O)[nH]c2=O)cc1 [Compound 58, 6-[4-(5-Bromo-2,4-dioxo-3,4-dihydro-2H-pyrimidin-1-yl-methyl)-phenyl]-hexanoic acid] |  | 42 µM |  |
| O=C(O)CCCCCc1ccc(Cn2cc(Cl)c(=O)[nH]c2=O)cc1 [Compound 59, 6-[4-(5-Chloro-2,4-dioxo-3,4-dihydro-2H-pyrimidin-1-yl-methyl)-phenyl]-hexanoic acid] |  |  | Ki [1]: 49 µM |
| NC(=O)CCCCCc1ccc(Cn2cc(Br)c(=O)[nH]c2=O)cc1 [Compound 61, 6-[4-(5-Bromo-2,4-dioxo-3,4-dihydro-2H-pyrimidin-1-yl-methyl)-phenyl]-hexanoic acid amide] |  | 24 µM |  |
| NC(=O)CCCCCc1ccc(Cn2cc(Cl)c(=O)[nH]c2=O)cc1 [Compound 62, 6-[4-(5-Chloro-2,4-dioxo-3,4-dihydro-2H-pyrimidin-1-yl-methyl)-phenyl]-hexanoic acid amide] |  |  | Ki [1]: 32 µM |
| Cc1cn(Cc2ccc(CSCC(=O)O)cc2)c(=O)[nH]c1=O [Compound 63, 3-[4-(5-Methyl-2,4-dioxo-3,4-dihydro-2H-pyrimidin-1-ylmethyl)-benzylsulfanyl]-acetic acid] |  | 15 µM |  |
| Cc1cn(Cc2ccc(CC(F)CC=O)cc2)c(=O)[nH]c1=O (stereo not drawn) [Compound 64, 3-Fluoro-4-[4-(5-methyl-2,4-dioxo-3,4-dihydro-2H-pyrimidin-1-yl-methyl)-phenyl]-butyraldehyde] |  |  | Ki [1]: 26 µM |
| Cc1cn(Cc2ccc(CC(F)CC(=O)O)cc2)c(=O)[nH]c1=O (stereo not drawn) [Compound 65, 3-Fluoro-4-[4-(5-Methyl-2,4-dioxo-3,4-dihydro-2H-pyrimidin-1-yl-methyl)-phenyl]-butyric acid] |  |  | Ki [1]: 63 µM |
| TMPKmt (M. tuberculosis TMPK) (Mycobacterium tuberculosis H37Rv) |  |  | Km [3]: 4.5 µM |
| B1 |  |  | Km [4]: 5 µM |

Source: patent publication US20080096907A1, “Aryl, Pyrimidyl Compounds, Pharmaceutical Compositions Comprising them, Their Use as Antimicrobial Agents” (INSTITUT PASTEUR, priority 2004, published 2008)
